These results are taken from patent US20070148710A1, “Cpt resistant cell line” (priority 2003, published 2007).

SMILES strings stand for the structures. In brackets after ≈: the same amount, converted by molar mass. Read-outs that look alike come from different tables or passages of the source.

In assay [1] the test system is SW948CPTH cells. Put plainly: clonogenic assay, CPT-11 IC50. It is filed as cell-based. As to conditions: Homo sapiens. The protocol: 7. […] IC50 was determined using a clonogenic assay.
Ten days later, the surviving fraction of the SW948 and SW948CPTH cells was determined.
The cells were then washed, fresh medium added, and plated for colony formation.

For a further assay, the system named is SW948CPTL cells. Put plainly: intracellular accumulation of CPT-11 (HPLC), effect of verapamil. It is filed as cell-based, human. The settings on record: SW948CPTL vs parent SW948; CPT-11 160 μM, 2 hours, 37° C. (FIG. 6A). From the text:
(§1) 10. […] Cells were washed, trypsinized, and counted. Cell pellets were lysed with water and sonicated. […] Results were generated from three independent experiments. […] Data are expressed as mean±SD. […] Data are the mean±SD of two experiments done in triplicate.
(§2) Additionally, multidrug resistance can be evaluated by measuring the expression level of p-glycoprotein (p-gp) (Juliano et al Biochim Biophys Acta 11:152-162, 1976) and breast cancer resistant protein (BCRP) (Doyle et al Proc Natl Acad Sci U S A 95:15665-15670, 1998) in SW948 and the resistant SW948 cell lines (SW948CPTH and SW948CPTL). It is understood that the disclosed methods can also be used with other cell lines including other colon cancer cell lines. For example, the disclosed methods can be used with LS174T, WiDr, HT-29, SW403, DLD-1, SW480, SNU-C1, Caco-2, and COLO 205 cell lines.

For assay [2], the system named is SW948CPTH cells. The description is as above. The assay is classed as cell-based, human. As to conditions: SW948CPTH vs parent SW948; CPT-11 160 μM, 2 hours, 37° C. (FIG. 6A).
Description: as §1, §2

For the compound `CCc1c2c(nc3ccc(OC(=O)N4CCC(N5CCCCC5)CC4)cc13)-c1cc3c(c(=O)n1C2)COC(=O)[C@]3(O)CC` [CPT-11, Irinotecan], the IC50 with SW948CPTH cells [1] (192 h, read-out: CPT-11 IC50, SW948CPTH exposed to 80 μg/ml CPT-11, 8 days when assayed, tested in presence of CPT-11) was 79 µg/mL; in the assay on SW948CPTH cells [1] (336 h, read-out: CPT-11 IC50, SW948CPTH exposed to 8 μg/ml CPT-11, 14 days when assayed, tested in presence of CPT-11), 18.2 µg/mL; in the assay with SW948CPTH cells [1] (480 h, read-out: CPT-11 IC50, SW948CPTH exposed to 8 μg/ml CPT-11, 20 days when assayed, tested in presence of CPT-11), 15.6 µg/mL; with SW948CPTH cells [1] (480 h, read-out: CPT-11 IC50, SW948CPTH exposed to 30 μg/ml CPT-11, 20 days when assayed, tested in presence of CPT-11), 18 µg/mL; in the assay on SW948CPTH cells [1] (552 h, read-out: CPT-11 IC50, SW948CPTH exposed to 10 μg/ml CPT-11, 23 days when assayed, tested in presence of CPT-11) it was 21.3 µg/mL; in the assay with SW948CPTH cells [1] (600 h, read-out: CPT-11 IC50, SW948CPTH exposed to 20 μg/ml CPT-11, 25 days when assayed, tested in presence of CPT-11), 23.6 µg/mL. Further, the IC50 in the assay on SW948CPTH cells [1] ([…], read-out: CPT-11 IC50, SW948CPTH exposed to 30 μg/ml CPT-11, 19 days when assayed, tested in presence of CPT-11) is 21.3 µg/mL; with SW948CPTH cells [1] (read-out: CPT-11 IC50, SW948CPTH exposed to 20 μg/ml CPT-11, 30 days when assayed, tested in presence of CPT-11) it was 18.2 µg/mL; in the assay on SW948CPTH cells [1] (read-out: CPT-11 IC50, SW948CPTH exposed to 20 μg/ml CPT-11, 51 days when assayed, tested in presence of CPT-11), 24 µg/mL; in the assay with SW948CPTH cells [1] (read-out: CPT-11 IC50, SW948CPTH exposed to 20 μg/ml CPT-11, 60 days, CPT-11 withdrawn for 33 days prior to IC50 determination) it was 19 µg/mL (≈ 32.4 µM); with SW948CPTH cells [1] (read-out: CPT-11 IC50, SW948CPTH exposed to 20 μg/ml CPT-11, 65 days when assayed, tested in presence of CPT-11), 34 µg/mL; in the assay with SW948CPTH cells [1] (read-out: CPT-11 IC50, SW948CPTH exposed to 30 μg/ml CPT-11, 47 days when assayed, tested in presence of CPT-11) it was 19 µg/mL. The IC50 is 55 µg/mL with SW948CPTH cells [1] (read-out: CPT-11 IC50, SW948CPTH exposed to 40 μg/ml CPT-11, 30 days when assayed, tested in presence of CPT-11); 25 µg/mL (≈ 42.6 µM) in the assay with SW948CPTH cells [1] (read-out: CPT-11 IC50 Dose, SW948CPTH treated 20 μg/ml CPT-11 62 days, 5 days after removal of CPT-11); 18.9 µg/mL (≈ 32.2 µM) in the assay with SW948CPTH cells [1] (read-out: CPT-11 IC50 Dose, SW948CPTH treated 20 μg/ml CPT-11 62 days, 21 days after removal of CPT-11); 19 µg/mL (≈ 32.4 µM) with SW948CPTH cells [1] (read-out: CPT-11 IC50 Dose, SW948CPTH treated 20 μg/ml CPT-11 62 days, 40 days after removal of CPT-11); 19.2 µg/mL (≈ 32.7 µM) with SW948CPTH cells [1] (read-out: CPT-11 IC50 Dose, SW948CPTH treated 20 μg/ml CPT-11 62 days, 45 days after removal of CPT-11); 11.4 µg/mL (≈ 19.4 µM) in the assay with SW948CPTH cells [1] (read-out: CPT-11 IC50 Dose, SW948CPTH treated 20 μg/ml CPT-11 62 days, 68 days after removal of CPT-11). Besides, the IC50 in the assay on SW948CPTH cells [1] (read-out: CPT-11 IC50 Dose, SW948CPTH treated 20 μg/ml CPT-11 62 days, 89 days after removal of CPT-11) amounted to 13.4 µg/mL (≈ 22.8 µM). In addition, the “intracellular accumulation of CPT-11” value in the assay with SW948CPTL cells and with SW948CPTH cells [2] was “lower than the parent cell line SW948” each time.
